{"source": "patent US5304474A", "about": "“Hydrophobic peptide esters and amides” (Board of Regents, The University of Texas System, priority 1991, dated 1994)", "key": {"spleen cells [1]": {"tested_on": "spleen cells", "assay": "Spleen cell H-2 phenotype of transplanted mice (chimerism)", "type": "in vivo, B6→B6D2F1 mice", "conditions": "recipients of treated cells, up to 275 d after transplantation", "experimental": "Spleen cells from control mice (normal B6 or B6D2F1) and long-term BMTx survivors (B6→B6D2F1) were depleted of B cells by panning on goat anti-mouse immunoglobulin-coated petri dishes (15). Aliquots of B cell-depleted spleen cells were incubated either with antibody 30-5-7.S (anti-L^d), antibody 28-18-3.S (anti-k^b), or with a relevant isotype control antibody for 30 min at 4° C. Cells were then washed and incubated with a fluorescein isothiocyanate-labeled goat anti-mouse immunoglobulin (GAMIG-FITC, Cappell Laboratories, Cochranville, Pa.) and analyzed on a flow cytometer (Ortho system 50 HH, Ortho Diagnostics, Raritan, N.J.).\nTo see whether the donor hemopoietic system remained dominant over that of the irradiated recipient, we characterized the H-2 phenotype of spleen cells from the mice used in the survival experiments at various times after transplantation. Spleen cells from normal B6 (donor, H-2^b) and B6D2F1 (recipient, H-2^b /H-2^d) mice served as controls."}, "NK cells": {"tested_on": "NK cells", "assay": "Loss of NK cells from PBM, anti-NK (leu 11b) staining", "type": "cell-based, human", "conditions": "15 minute exposure, 2 hours at 37° C. (FIG. 6)", "experimental": "In the experiments depicted in FIG. 6, freshly isolated PBM (2.5×10^6 /ml PBS and 1g/l glucose) were incubated at room temperature with varying concentrations of Leu-Leu-OMe. After a 15 minute exposure to this compound, the cells were washed, incubated for 2 hours at 37° C. and then assessed for the percentage of remaining viable cells which were stained by anti-MP or anti-NK monoclonal antibodies. Preincubation with greater than 25-50 micromola Leu-Leu-OMe led to loss of NK cells.\nAnti-MP monoclonal antibodies (63D3) and anti-NK monoclonal antibodies (leu 11b) were obtained from Becton Dickinson Monoclonal Center, lnc., Mountain View, Cal. The antibody staining and Fluorescence Activated Cell Sorter (FACS) procedure was that of Rosenberg et al. (1981) (J. Immunol. V 126, p 1473). Data are expressed as percent of antibody staining in control cells (mean±SEM, n=4)."}, "spleen cells [2]": {"tested_on": "spleen cells", "assay": "Donor cell viability and subsets after treatment", "type": "cell-based, mice", "source_text": "Female, 8-16-wk-old, C57BL/6J (B6) and (C57BL/6J x DBA/2J)F1 mice (B6D2F1) were used as donors and recipients, respectively. For some experiments B6 donors were […] 70×10^6 cells/ml either in phosphate-buffered saline (PBS) or in Leu-Leu-OMe dissolved in PBS. Leu-Leu-OMe was synthesized from leucyl-leucine as previously described (10). […]\nImmediately after treatment with Leu-Leu-OMe, there was less than a 5% loss of viable donor cells."}, "[3]": {"tested_on": "splenic NK function (YAC-1 tumor targets)", "assay": "Spleen cell NK function against YAC-1 after tail-vein injection", "type": "in vivo, C3H/HeJ mice", "experimental": "Leu-Leu-OMe or Leu-Phe-OMe were suspended in PBS, pH 7.4. Then individual C3H/HeJ mice (25 gram size) were administered by tail-vein injection either 2.5×10^-5 moles (6.5 mg) of Leu-Leu-OMe, 2.5×10^-5 moles (7.1 mg) Leu-Phe-OMe, or an equal volume of the PBS diluent, this dose being about 1×10^-3 moles per kg. […] Subsequent to this quiescent period no difference in activity or appearance in the mice was noted. Two hours post-injection, the mice were sacrificed and their spleen cells were assayed for NK function in a standard 4 hour assay against YAC-1 tumor targets. In all mice, total cell recovery ranged […] spleen cells per animal. […] Thus, Leu-Leu-OMe or Leu-Phe-OMe caused a greater than 75% decrease in splenic lytic activity against YAC-1 tumor targets."}, "PBM": {"tested_on": "PBM", "assay": "51Cr release toxicity assay", "type": "cell-based, human", "conditions": "15 minutes exposure, 4 hour release (FIG. 7)", "experimental": "(§1) In some experiments, toxicity of Leu-Leu-OMe for a variety of cell populations was assessed by ^51 Cr release In assays where cells obtained from suspension culture were to be used, cells were labeled with Na2^51 CrO4 (ICN, Plainview, N.Y.) for 60-90 minutes at 37° C. and then washed three times. Cells were then suspended in PBS (2.5×10^6 /ml) and incubated in microtiter plates, 50 microL/well with indicated concentrations of Leu-Leu-OMe for 15 minutes at room temperature. […] Following ^51 Cr labeling, wells were thoroughly washed and varying concentrations of Leu-Leu-OMe added in 50 microL PBS and the plates incubated for 15 minutes at room temperature.\n(§2) Following such initial serum-free incubations, 200 microL/well of medium RPMI containing 10% FBS were added and the plates incubated for another 4 hours prior to removal of 100 microliters of supernatant. Radioactivity in the supernatant was measured in an auto-gamma scintillation spectrometer (Packard Instrument Co., Downers Grove, Ill.). The percent specific release was calculated from the formula: [formula] in which maximal release refers to cpm obtained in wells containing 50% lysing agent (American Scientific Products, McGraw Park, Ill.) and spontaneous release refers to cpm released by cells incubated in control medium in the absence of Leu-Leu-OMe or the lysing agent. Only experiments in which spontaneous release was […] were used for subsequent data interpretation.\n(§3) In developing the data expressed in FIG. 7, cells (2.5×10^6 /ml) were exposed to the indicated concentrations of Leu-Leu-OMe for 15 minutes at room temperature, then specific ^51 Cr release during the next four hours was assessed. Data for the EBV transformed lines JM.6, SDL-G2, D8-219, and SM.4, respectively, are shown in order from top to bottom."}, "[4]": {"tested_on": "nylon wool non-adherent lymphocytes (NAC)", "assay": "51Cr release toxicity assay", "type": "cell-based, human", "conditions": "25 to 50 micromolar", "experimental": "as §1, §2, §3"}, "human erythrocytes (RBC)": {"tested_on": "human erythrocytes (RBC)", "assay": "51Cr release from RBC incubated with peptide ester alone", "type": "cell-based", "conditions": "for ^51 Cr Release from RBC: Nil 410 + 12", "experimental": "The following experiments were carried out to determine whether DPPI could generate a lytic product from Leu-Leu-OMe. In the experiment detailed in FIG. 12, ^51 Cr-labeled human erythrocytes (RBC) were incubated with varying concentrations of Leu-Leu-OMe alone or in the presence of purified bovine DPPI."}, "[5]": {"conditions": "following 3-h incubation at 37° C."}}, "data": [{"smiles": "COC(=O)[C@H](CC(C)C)NC(=O)[C@@H](N)CC(C)C", "note": "[Leu-Leu-OMe, L-leucyl-L-leucine methyl ester]", "values": [{"measurement": "reactivity of spleen cells with anti-H-2^b", "setting": "spleen cells [1]", "value": "> 95", "unit": "%"}, {"measurement": "reactivity of spleen cells with anti-H-2^d", "setting": "spleen cells [1]", "value": "< 1", "unit": "%"}, {"measurement": "preincubation concentration leading to loss of NK cells", "setting": "NK cells", "value": "25 to 50", "unit": "µM"}, {"measurement": "decrease in number of Lyt-2^+ spleen cells", "setting": "spleen cells [2]; [5]", "value": "more than 65%"}, {"measurement": "number of L3T4^+ cells", "setting": "spleen cells [2]; [5]", "value": "no alteration in the number of L3T4^+ cells"}, {"measurement": "loss of viable donor cells", "setting": "spleen cells [2]; immediately after treatment", "value": "< 5", "unit": "%"}, {"measurement": "Percent lysis of target cells", "setting": "[3]; E:T 25:1, 2.5×10^-5 moles per mouse tail-vein, 2 hours post-injection, Control 8.29", "value": 2.37, "unit": "%"}, {"measurement": "Percent lysis of target cells", "setting": "[3]; E:T 50:1, same dosing, Control 12.88", "value": 4.58, "unit": "%"}, {"measurement": "Percent lysis of target cells", "setting": "[3]; E:T 100:1, same dosing, Control 20.60", "value": 7.12, "unit": "%"}, {"measurement": "Percent lysis of target cells", "setting": "[3]; E:T 200:1, same dosing, Control 29.29", "value": 12.77, "unit": "%"}, {"measurement": "decrease in splenic lytic activity against YAC-1 tumor targets", "setting": "[3]; about 1×10^-3 moles per kg tail-vein", "value": "greater than 75%"}, {"measurement": "concentration for maximal achievable 51Cr release", "setting": "PBM", "value": "greater than 100 micromolar"}, {"measurement": "concentration giving detectable 51Cr release", "setting": "PBM", "value": "25 to 50", "unit": "µM"}, {"measurement": "51Cr release", "setting": "[4]", "value": "small but significant ^51 Cr release"}, {"measurement": "^51 Cr Release from RBC", "setting": "human erythrocytes (RBC); 100 micro-M", "value": "400 + 27"}, {"measurement": "^51 Cr Release from RBC", "setting": "human erythrocytes (RBC); 500 micro-M", "value": "482 + 57"}, {"measurement": "^51 Cr Release from RBC", "setting": "human erythrocytes (RBC); 2500 micro-M", "value": "482 + 121"}, {"measurement": "damage to RBC by compound alone, in words", "setting": "human erythrocytes (RBC); no DPPI", "value": "results in no damage to RBC"}]}]}
